Key:
Assay type in all cases: cell-based
C4-2 cells = assay: Chemotherapeutic sensitivity, cell growth by MTT assay, C4-2 cells; conditions: Homo sapiens, invasive LNCaP lineage C4-2 cells, in vitro growth
Procedure: (§1) Cells (5×10^3 per well) were cultured in 96-well plates for 24 hr and then replaced with fresh cultured medium to which were added Paclitaxel, Etoposide, or Doxorubicin (Sigma, St. Louis, Mo.) at 4 different concentrations, followed by incubation for 96 hrs. Cell growth was measured using the MTT assay.

ARCaPM cells = assay: Chemotherapeutic sensitivity, cell growth by MTT assay, ARCaPM cells; conditions: Homo sapiens, in vitro growth, 96 hrs incubation
Procedure: as §1

ARCaPE cells = assay: Chemotherapeutic sensitivity, cell growth by MTT assay, ARCaPE cells; conditions: Homo sapiens, in vitro growth, 96 hrs incubation
Procedure: as §1

Row | SMILES | IC50 (C4-2 cells) [µM] | IC50 (ARCaPM cells) [µM] | IC50 (ARCaPE cells) [µM]
1 | COc1cccc2c1C(=O)c1c(O)c3c(c(O)c1C2=O)C[C@@](O)(C(=O)CO)C[C@@H]3O[C@H]1C[C@H](N)[C@H](O)[C@H](C)O1 [doxorubicin] | 2.7 | 5.5 | 3.4
2 | COc1cc([C@@H]2c3cc4c(cc3[C@@H](O[C@@H]3O[C@@H]5CO[C@@H](C)O[C@H]5[C@H](O)[C@H]3O)[C@H]3COC(=O)[C@H]23)OCO4)cc(OC)c1O [etoposide] | 5.6 | 5.8 | 8.1
3 | CC(=O)O[C@H]1C(=O)[C@@]2(C)[C@H]([C@H](OC(=O)c3ccccc3)[C@]3(O)C[C@H](OC(=O)[C@H](O)[C@@H](NC(=O)c4ccccc4)c4ccccc4)C(C)=C1C3(C)C)[C@]1(OC(C)=O)CO[C@@H]1C[C@@H]2O [paclitaxel] | 0.0235 | 0.039 | 0.053

— patent US20090028832A1, “Compositions and methods for targeted tumor therapy” (priority 2006, published 2009)
